Measurements reported in PMC5776081, “The Stoichiometric Interaction of the Hsp90-Sgt1-Rar1 Complex by CD and SRCD Spectroscopy” (Frontiers in Molecular Biosciences, 2018).

Biological target: T1, Rar1 (Arabidopsis thaliana, UniProt Q9SE33)
T1 sequence (Q9SE33 1-226): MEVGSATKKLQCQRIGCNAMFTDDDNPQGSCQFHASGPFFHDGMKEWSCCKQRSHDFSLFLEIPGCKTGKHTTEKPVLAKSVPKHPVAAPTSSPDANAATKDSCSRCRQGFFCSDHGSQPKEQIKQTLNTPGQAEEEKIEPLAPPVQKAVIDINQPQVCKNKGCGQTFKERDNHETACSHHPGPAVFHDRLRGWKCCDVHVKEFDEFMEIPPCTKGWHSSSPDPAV
Experiment: near-UV CD titration, non-linear fit at […] nm
Details: 4 °C; 1:1 site; authors call it weak non-specific binding; apparent Kd

With Nc1ncnc2c1ncn2[C@@H]1O[C@H](COP(=O)(O)OP(=O)(O)O)[C@@H](O)[C@H]1O [ADP] as the compound, how does the Kd read?
Its Kd is 2000 µM.
